# Measurements as given in patent US20120251514A1, “MODULATED PROGRAMMED DEATH LIGAND-1” (University Health Network, priority 2009, published 2012).
# System: NSG host mice
# Test: xGVHD model with SHP1/2 inhibitor-treated TEFF cells (Example 16)
# Type: in vivo
# Settings: for Tbet+: engrafted human T cells; for Tbet+ / TNF-α / Absolute no. of Foxp3+ T cells expressing IFN-γ / Absolute no. of Foxp3+ T cells expressing IL-2 / Absolute no. of Foxp3+ T cells expressing TNF-α / Absolute no. of Foxp3− T cells expressing IL-2 / Absolute no. of Foxp3− T cells expressing TNF-α: TEFF & PDL1-LV transduced T cells; for Post LPS survival (%): human TEFF cells + monos + TPDL1, inhibitor treatment of Teff 100 μM, LPS day 5; for TNF-α: serum 120 min after LPS; for Absolute no. of Foxp3+ T cells expressing IFN-γ / Absolute no. of Foxp3+ T cells expressing IL-2 / Absolute no. of Foxp3+ T cells expressing TNF-α / Absolute no. of Foxp3− T cells expressing IL-2 / Absolute no. of Foxp3− T cells expressing TNF-α / Absolute no. of Foxp3− T cells expressing IFN-γ: spleen day 6, PMA/ionomycin; for Absolute no. of Foxp3− T cells expressing IFN-γ: TEFF (inhibitor-treated ex vivo where labelled) & PDL1-LV transduced T cells
# Excerpt: Because PD1 receptor signaling occurs via SHP1/2, it was next hypothesized that ex vivo pharmacologic inhibition of this pathway using prevanadate and NSC87877 might also generate TEFF cells (TEFFShp1/2^in) resistant to the tolerizing effect of PDL1. NSG host mice received a combination of human Th1 cells (either unmodified, pervanadate-treated, or NSC87877-treated) and PDL1-LV transduced T cells. At day 6, absolute numbers of human T cells engrafted in the spleen were enumerated. Splenocyes were stimulated (PMA/ionomycin) and the absolute number of Foxp3-negative T cells expressing IFN-γ (i), IL-2 (ii), and TNF-α (iii) were quantified; conversely, […]
# Recipients were challenged with LPS and serum was harvested 120 min later for measurement of TNF-α. Absolute numbers of engrafted human T cells expressing T-bet were quantified.
# Cohorts of host mice received the human cell inocula specified, followed by LPS administration on day 5 post-transfer for assessment of lethal cytokine-mediated xGVHD.
Compound,Tbet+,Post LPS survival (%),TNF-α,Absolute no. of Foxp3+ T cells expressing IFN-γ,Absolute no. of Foxp3+ T cells expressing IL-2,Absolute no. of Foxp3+ T cells expressing TNF-α,Absolute no. of Foxp3− T cells expressing IL-2,Absolute no. of Foxp3− T cells expressing TNF-α,Absolute no. of Foxp3− T cells expressing IFN-γ
pervanadate,~2.0 ×10^3,33%,~0.37 µg/mL,~.3 ×10^3,~1.3 ×10^3,~0.4 ×10^3,~2 ×10^3,~3.9 ×10^3,~1.5 ×10^3
O=S(=O)(O)c1ccc2cc(N=Nc3cc(S(=O)(=O)O)c4cccnc4c3O)ccc2c1 [NSC87877],~2.7 ×10^3,0%,~0.42 µg/mL,~0.1 ×10^3,~1.4 ×10^3,~1.3 ×10^3,~2.6 ×10^3,~6.0 ×10^3,~1.1 ×10^3
